Assay results as given in patent US10336732B2, “1-heterocyclyl isochromanyl compounds and analogs for treating CNS disorders” (Sunovion Pharmaceuticals Inc., priority 2015, dated 2019).

System: mice
Assay: Neuropharmacological assay (SmartCube), behavioral signature of compound-treated mice
Format: in vivo
Details: i.p. 15 min before behavioral test, most efficacious dose(s) of 3 doses
Excerpt: Neurosci. […] As reported in Roberds, because psychiatric diseases generally result from disorders of cell-cell communication or circuitry, intact systems are useful in detecting improvement in disease-relevant endpoints. These endpoints are typically behavioral in nature, often requiring human observation and interpretation. To facilitate testing of multiple compounds for behavioral effects relevant to psychiatric disease, PsychoGenics, Inc. (Tarrytown, N.Y., “PGI”) developed SmartCube™, an automated system in which behaviors of compound-treated mice are captured by digital video and analyzed with computer algorithms. […] PGI Analytical Systems uses data from SmartCube™ to compare the behavioral signature of a test compound to a database of behavioral signatures obtained using a large set of diverse reference compounds. (The composition of the database as well as validation of the method is further described in Roberds). In this way, the neuropharmacological effects of a test compound can be predicted by similarity to major classes of compounds, such as antipsychotics, anxiolytics and antidepressants.
The SmartCube™ system produces an activity signature indicating the probability that the activity of the test compound at the administered dose matches a given class of neuropharmacological agents. (See, e.g., Roberds, FIGS. 2 and 3). The test compound is simultaneously compared against multiple classes of agents; thus, a separate probability is generated for each behavioral effect measured (e.g., anxiolytic activity, analgesic activity, etc.). In Table 4, these probabilities are reported for each behavioral effect measured as follows:
Provided compounds were dissolved in a mixture of Pharmasolve™ (N-methyl-2-pyrrolidone), polyethylene glycol and propylene glycol, and were injected i.p. 15 min. before the behavioral test. For each compound, injections were administered at 3 different doses. For each behavioral effect measured, results for the most efficacious dose(s) are presented.

| Compound | AD: ADHD (probability that behavioral signature matches class) | AG: analgesic (probability that behavioral signature matches class) | AX: anxiolytic (probability that behavioral signature matches class) | CE: cognitive enhancer (probability that behavioral signature matches class) | DP: anti-depressant (probability that behavioral signature matches class) | HA: hallucinogen (probability that behavioral signature matches class) | MS: mood stabilizer (probability that behavioral signature matches class) | PS: anti-psychotic (probability that behavioral signature matches class) | SD: sedative hypnotic (probability that behavioral signature matches class) | UN: uncharacterized CNS activity (probability that behavioral signature matches class) | XG: anxiogenic (probability that behavioral signature matches class) |
| --- | --- | --- | --- | --- | --- | --- | --- | --- | --- | --- | --- |
| Fc1ccc2c(c1)[C@H]([C@H]1CCCN1)OCC2 [Compound I-7, (R)-2-((R)-7-fluoroisochroman-1-yl)pyrrolidine] | + (LOQ ≤ + <5%) | ++ (5% ≤ ++ <25%) | ++ (5% ≤ ++ <25%) | ++ (5% ≤ ++ <25%) | ++ (5% ≤ ++ <25%) | + (LOQ ≤ + <5%) | + (LOQ ≤ + <5%) | ++ (5% ≤ ++ <25%) | + (LOQ ≤ + <5%) | +++ (25% ≤ +++ <50%) | + (LOQ ≤ + <5%) |
| Fc1ccc2c(c1)[C@@H]([C@H]1CCCN1)OCC2 [Compound I-8, (R)-2-((S)-7-fluoroisochroman-1-yl)pyrrolidine] | + (LOQ ≤ + <5%) | + (LOQ ≤ + <5%) | ++ (5% ≤ ++ <25%) | ++ (5% ≤ ++ <25%) | +++ (25% ≤ +++ <50%) | + (LOQ ≤ + <5%) | + (LOQ ≤ + <5%) | +++ (25% ≤ +++ <50%) | ++ (5% ≤ ++ <25%) | ++ (5% ≤ ++ <25%) | + (LOQ ≤ + <5%) |
| Fc1ccc2c(c1)CCO[C@@H]2[C@@H]1CCCN1 [Compound I-10, (S)-2-((S)-6-fluoroisochroman-1-yl)pyrrolidine] | + (LOQ ≤ + <5%) | ++ (5% ≤ ++ <25%) | ++ (5% ≤ ++ <25%) | ++ (5% ≤ ++ <25%) | ++ (5% ≤ ++ <25%) | + (LOQ ≤ + <5%) | + (LOQ ≤ + <5%) | ++ (5% ≤ ++ <25%) | + (LOQ ≤ + <5%) | + (LOQ ≤ + <5%) | + (LOQ ≤ + <5%) |
| Fc1ccc2c(c1)CCO[C@@H]2[C@H]1CCCN1 [Compound I-11, (R)-2-((S)-6-fluoroisochroman-1-yl)pyrrolidine] | + (LOQ ≤ + <5%) | ++ (5% ≤ ++ <25%) | ++ (5% ≤ ++ <25%) | ++ (5% ≤ ++ <25%) | ++ (5% ≤ ++ <25%) | + (LOQ ≤ + <5%) | + (LOQ ≤ + <5%) | +++ (25% ≤ +++ <50%) | + (LOQ ≤ + <5%) | ++ (5% ≤ ++ <25%) | + (LOQ ≤ + <5%) |
| Fc1ccc2c(c1)CCO[C@H]2[C@H]1CCCN1 [Compound I-12, (R)-2-((R)-6-fluoroisochroman-1-yl)pyrrolidine] | + (LOQ ≤ + <5%) | ++ (5% ≤ ++ <25%) | ++ (5% ≤ ++ <25%) | + (LOQ ≤ + <5%) | ++ (5% ≤ ++ <25%) | + (LOQ ≤ + <5%) | + (LOQ ≤ + <5%) | ++ (5% ≤ ++ <25%) | + (LOQ ≤ + <5%) | ++++ (50% ≤ ++++) | + (LOQ ≤ + <5%) |
| Fc1cccc2c1CCO[C@H]2[C@@H]1CCCN1 [Compound I-13, (S)-2-((R)-5-fluoroisochroman-1-yl)pyrrolidine] | + (LOQ ≤ + <5%) | ++ (5% ≤ ++ <25%) | ++ (5% ≤ ++ <25%) | ++ (5% ≤ ++ <25%) | +++ (25% ≤ +++ <50%) | + (LOQ ≤ + <5%) | ++ (5% ≤ ++ <25%) | ++++ (50% ≤ ++++) | + (LOQ ≤ + <5%) | ++ (5% ≤ ++ <25%) | + (LOQ ≤ + <5%) |
| Fc1cccc2c1CCO[C@@H]2[C@@H]1CCCN1 [Compound I-14, (S)-2-((S)-5-fluoroisochroman-1-yl)pyrrolidine] | + (LOQ ≤ + <5%) | ++ (5% ≤ ++ <25%) | ++ (5% ≤ ++ <25%) | ++ (5% ≤ ++ <25%) | +++ (25% ≤ +++ <50%) | + (LOQ ≤ + <5%) | ++ (5% ≤ ++ <25%) | +++ (25% ≤ +++ <50%) | + (LOQ ≤ + <5%) | + (LOQ ≤ + <5%) | + (LOQ ≤ + <5%) |
| Fc1cccc2c1CCO[C@H]2[C@H]1CCCN1 [Compound I-15, (R)-2-((R)-5-fluoroisochroman-1-yl)pyrrolidine] | + (LOQ ≤ + <5%) | ++ (5% ≤ ++ <25%) | +++ (25% ≤ +++ <50%) | ++ (5% ≤ ++ <25%) | ++ (5% ≤ ++ <25%) | + (LOQ ≤ + <5%) | + (LOQ ≤ + <5%) | ++ (5% ≤ ++ <25%) | + (LOQ ≤ + <5%) | + (LOQ ≤ + <5%) | + (LOQ ≤ + <5%) |
| Fc1cccc2c1CCO[C@@H]2[C@H]1CCCN1 [Compound I-16, (R)-2-((S)-5-fluoroisochroman-1-yl)pyrrolidine] | + (LOQ ≤ + <5%) | + (LOQ ≤ + <5%) | ++ (5% ≤ ++ <25%) | ++ (5% ≤ ++ <25%) | ++ (5% ≤ ++ <25%) | + (LOQ ≤ + <5%) | ++ (5% ≤ ++ <25%) | +++ (25% ≤ +++ <50%) | + (LOQ ≤ + <5%) | +++ (25% ≤ +++ <50%) | + (LOQ ≤ + <5%) |
